Tests used:
Details in all cases: PC-3
[1] = target: T1, Dual specificity mitogen-activated protein kinase kinase 6 (Homo sapiens) (UniProt P52564); assay: Inhibition of MAP2K6 in human PC3 cell lysates at 10 uM using desthiobiotin-tagged ATP probe AX9989 followed by trypsinization by LC/MS analysis
T1 sequence (whole entry): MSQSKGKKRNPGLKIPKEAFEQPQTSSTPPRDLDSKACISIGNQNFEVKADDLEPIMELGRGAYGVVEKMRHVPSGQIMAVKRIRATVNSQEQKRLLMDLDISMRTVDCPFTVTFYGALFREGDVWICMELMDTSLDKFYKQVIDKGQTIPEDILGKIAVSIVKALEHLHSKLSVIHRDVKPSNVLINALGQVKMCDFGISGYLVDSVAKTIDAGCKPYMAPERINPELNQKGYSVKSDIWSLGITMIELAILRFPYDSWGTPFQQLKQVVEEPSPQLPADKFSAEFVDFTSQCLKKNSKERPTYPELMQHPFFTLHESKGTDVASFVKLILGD

[2] = target: Mitogen-activated protein kinase kinase kinase 4 (Homo sapiens) (UniProt Q9Y6R4); assay: Inhibition of MAP3K4 in human PC3 cell lysates at 10 uM using desthiobiotin-tagged ATP probe AX9989 followed by trypsinization by LC/MS analysis
Chain of Mitogen-activated protein kinase kinase kinase 4 (Homo sapiens) (Q9Y6R4 whole entry): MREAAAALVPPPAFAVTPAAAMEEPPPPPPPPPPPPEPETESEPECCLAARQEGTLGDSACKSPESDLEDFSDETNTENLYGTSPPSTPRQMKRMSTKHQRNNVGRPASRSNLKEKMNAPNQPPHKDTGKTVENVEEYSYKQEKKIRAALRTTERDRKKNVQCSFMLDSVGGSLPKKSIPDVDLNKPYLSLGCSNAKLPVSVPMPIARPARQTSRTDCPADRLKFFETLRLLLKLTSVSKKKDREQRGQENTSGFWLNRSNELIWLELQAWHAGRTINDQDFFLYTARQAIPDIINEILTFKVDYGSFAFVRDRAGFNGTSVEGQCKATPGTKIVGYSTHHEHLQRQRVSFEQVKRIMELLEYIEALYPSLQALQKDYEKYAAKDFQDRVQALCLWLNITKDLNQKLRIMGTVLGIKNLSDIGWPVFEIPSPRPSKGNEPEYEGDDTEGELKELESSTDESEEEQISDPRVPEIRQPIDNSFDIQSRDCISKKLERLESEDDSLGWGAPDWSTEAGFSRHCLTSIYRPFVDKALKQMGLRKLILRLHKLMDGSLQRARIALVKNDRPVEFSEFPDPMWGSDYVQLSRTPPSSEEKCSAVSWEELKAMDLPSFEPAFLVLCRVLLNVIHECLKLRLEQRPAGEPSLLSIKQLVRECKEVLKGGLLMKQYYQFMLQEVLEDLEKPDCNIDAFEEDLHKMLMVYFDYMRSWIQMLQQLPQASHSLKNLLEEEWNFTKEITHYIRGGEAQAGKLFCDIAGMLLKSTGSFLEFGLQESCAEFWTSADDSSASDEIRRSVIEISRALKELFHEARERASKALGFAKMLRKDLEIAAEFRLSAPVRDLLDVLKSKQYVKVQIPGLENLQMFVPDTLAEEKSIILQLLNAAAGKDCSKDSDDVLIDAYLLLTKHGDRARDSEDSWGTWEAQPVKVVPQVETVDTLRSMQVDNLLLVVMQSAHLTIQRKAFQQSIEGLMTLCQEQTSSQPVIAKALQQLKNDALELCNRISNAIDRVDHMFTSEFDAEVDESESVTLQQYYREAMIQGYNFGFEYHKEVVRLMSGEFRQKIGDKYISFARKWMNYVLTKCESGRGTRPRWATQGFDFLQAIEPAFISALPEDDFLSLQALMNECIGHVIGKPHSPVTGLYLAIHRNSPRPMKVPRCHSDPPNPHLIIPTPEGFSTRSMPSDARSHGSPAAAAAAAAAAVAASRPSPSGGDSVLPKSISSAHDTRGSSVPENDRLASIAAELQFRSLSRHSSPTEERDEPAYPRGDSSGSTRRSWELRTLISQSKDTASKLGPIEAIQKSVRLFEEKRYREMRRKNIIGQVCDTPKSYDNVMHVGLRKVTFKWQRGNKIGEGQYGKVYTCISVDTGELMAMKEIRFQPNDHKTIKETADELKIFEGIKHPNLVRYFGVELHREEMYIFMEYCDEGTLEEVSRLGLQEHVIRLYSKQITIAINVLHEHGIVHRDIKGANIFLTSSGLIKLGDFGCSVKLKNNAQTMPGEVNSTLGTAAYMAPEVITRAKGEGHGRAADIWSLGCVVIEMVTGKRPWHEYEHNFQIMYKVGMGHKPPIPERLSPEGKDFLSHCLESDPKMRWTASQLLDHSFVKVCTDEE

[3] = target: T2, EKC/KEOPS complex subunit TP53RK (Homo sapiens) (UniProt Q96S44); assay: Inhibition of PRPK in human PC3 cell lysates at 10 uM using desthiobiotin-tagged ATP probe AX9989 followed by trypsinization by LC/MS analysis
T2 sequence (whole entry): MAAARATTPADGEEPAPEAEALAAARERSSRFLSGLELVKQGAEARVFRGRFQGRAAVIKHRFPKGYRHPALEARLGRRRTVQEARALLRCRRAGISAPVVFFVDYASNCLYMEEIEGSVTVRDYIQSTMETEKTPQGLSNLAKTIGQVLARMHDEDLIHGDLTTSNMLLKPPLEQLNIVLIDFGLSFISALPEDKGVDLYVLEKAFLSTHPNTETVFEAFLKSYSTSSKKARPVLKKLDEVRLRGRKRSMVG

[4] = target: Cyclin-dependent kinase 5 (Homo sapiens) (UniProt Q00535); assay: Inhibition of CDK5 in human PC3 cell lysates at 10 uM using desthiobiotin-tagged ATP probe AX9989 followed by trypsinization by LC/MS analysis
Chain of Cyclin-dependent kinase 5 (Homo sapiens) (Q00535 whole entry, looked up): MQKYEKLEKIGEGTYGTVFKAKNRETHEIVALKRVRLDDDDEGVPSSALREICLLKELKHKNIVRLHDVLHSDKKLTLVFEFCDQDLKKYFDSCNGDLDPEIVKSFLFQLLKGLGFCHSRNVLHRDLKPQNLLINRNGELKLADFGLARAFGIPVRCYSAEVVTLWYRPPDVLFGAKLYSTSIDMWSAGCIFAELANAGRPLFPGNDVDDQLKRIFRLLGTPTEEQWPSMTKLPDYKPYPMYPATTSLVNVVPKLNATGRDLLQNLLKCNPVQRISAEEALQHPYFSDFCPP

[5] = target: Cyclin-dependent kinase 10 (Homo sapiens) (UniProt Q15131); assay: Inhibition of CDK10 in human PC3 cell lysates at 10 uM using desthiobiotin-tagged ATP probe AX9989 followed by trypsinization by LC/MS analysis
Chain of Cyclin-dependent kinase 10 (Homo sapiens) (Q15131 whole entry): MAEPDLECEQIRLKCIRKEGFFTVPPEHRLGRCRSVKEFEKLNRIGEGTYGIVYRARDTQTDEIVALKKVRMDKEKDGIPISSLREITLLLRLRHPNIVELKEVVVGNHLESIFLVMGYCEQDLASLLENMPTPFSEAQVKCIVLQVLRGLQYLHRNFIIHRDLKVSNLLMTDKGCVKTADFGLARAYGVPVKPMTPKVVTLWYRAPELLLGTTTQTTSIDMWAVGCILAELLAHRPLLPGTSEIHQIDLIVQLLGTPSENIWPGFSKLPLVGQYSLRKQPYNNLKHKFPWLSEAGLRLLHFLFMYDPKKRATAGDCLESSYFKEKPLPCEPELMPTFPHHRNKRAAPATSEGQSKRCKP

[6] = target: Serine/threonine-protein kinase 25 (Homo sapiens) (UniProt O00506); assay: Inhibition of YSK1 in human PC3 cell lysates at 10 uM using desthiobiotin-tagged ATP probe AX9989 followed by trypsinization by LC/MS analysis
Chain of Serine/threonine-protein kinase 25 (Homo sapiens) (O00506 whole entry, looked up): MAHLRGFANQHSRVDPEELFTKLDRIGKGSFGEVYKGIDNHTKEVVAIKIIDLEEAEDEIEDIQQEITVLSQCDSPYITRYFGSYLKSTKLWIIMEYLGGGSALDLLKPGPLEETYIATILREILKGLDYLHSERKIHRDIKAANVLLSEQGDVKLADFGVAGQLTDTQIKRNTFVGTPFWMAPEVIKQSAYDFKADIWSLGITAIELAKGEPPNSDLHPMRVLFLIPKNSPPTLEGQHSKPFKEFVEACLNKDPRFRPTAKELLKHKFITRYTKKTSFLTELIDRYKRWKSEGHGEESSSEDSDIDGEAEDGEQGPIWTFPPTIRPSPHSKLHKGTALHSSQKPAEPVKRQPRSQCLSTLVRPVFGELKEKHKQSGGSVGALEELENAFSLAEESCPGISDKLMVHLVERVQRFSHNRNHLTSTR

[7] = target: Serine/threonine-protein kinase Chk2 (Homo sapiens) (UniProt O96017); assay: Inhibition of CHK2 in human PC3 cell lysates at 10 uM using desthiobiotin-tagged ATP probe AX9989 followed by trypsinization by LC/MS analysis
Chain of Serine/threonine-protein kinase Chk2 (Homo sapiens) (O96017 whole entry): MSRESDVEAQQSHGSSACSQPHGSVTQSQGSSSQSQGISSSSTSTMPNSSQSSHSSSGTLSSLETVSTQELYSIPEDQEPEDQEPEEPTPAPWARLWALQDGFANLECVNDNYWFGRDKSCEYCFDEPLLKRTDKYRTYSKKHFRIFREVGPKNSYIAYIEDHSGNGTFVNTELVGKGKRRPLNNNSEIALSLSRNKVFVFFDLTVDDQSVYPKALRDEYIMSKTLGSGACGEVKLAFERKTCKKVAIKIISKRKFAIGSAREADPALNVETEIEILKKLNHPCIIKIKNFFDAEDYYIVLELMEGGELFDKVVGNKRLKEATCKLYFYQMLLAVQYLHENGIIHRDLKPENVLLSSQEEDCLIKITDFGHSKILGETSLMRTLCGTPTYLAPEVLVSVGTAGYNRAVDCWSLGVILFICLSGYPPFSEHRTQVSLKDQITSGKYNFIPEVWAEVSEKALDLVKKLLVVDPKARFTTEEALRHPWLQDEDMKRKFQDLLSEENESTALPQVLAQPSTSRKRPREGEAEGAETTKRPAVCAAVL

[8] = target: T3, Eukaryotic elongation factor 2 kinase (Homo sapiens) (UniProt O00418); assay: Inhibition of eEF2K in human PC3 cell lysates at 10 uM using desthiobiotin-tagged ATP probe AX9989 followed by trypsinization by LC/MS analysis
T3 sequence (whole entry): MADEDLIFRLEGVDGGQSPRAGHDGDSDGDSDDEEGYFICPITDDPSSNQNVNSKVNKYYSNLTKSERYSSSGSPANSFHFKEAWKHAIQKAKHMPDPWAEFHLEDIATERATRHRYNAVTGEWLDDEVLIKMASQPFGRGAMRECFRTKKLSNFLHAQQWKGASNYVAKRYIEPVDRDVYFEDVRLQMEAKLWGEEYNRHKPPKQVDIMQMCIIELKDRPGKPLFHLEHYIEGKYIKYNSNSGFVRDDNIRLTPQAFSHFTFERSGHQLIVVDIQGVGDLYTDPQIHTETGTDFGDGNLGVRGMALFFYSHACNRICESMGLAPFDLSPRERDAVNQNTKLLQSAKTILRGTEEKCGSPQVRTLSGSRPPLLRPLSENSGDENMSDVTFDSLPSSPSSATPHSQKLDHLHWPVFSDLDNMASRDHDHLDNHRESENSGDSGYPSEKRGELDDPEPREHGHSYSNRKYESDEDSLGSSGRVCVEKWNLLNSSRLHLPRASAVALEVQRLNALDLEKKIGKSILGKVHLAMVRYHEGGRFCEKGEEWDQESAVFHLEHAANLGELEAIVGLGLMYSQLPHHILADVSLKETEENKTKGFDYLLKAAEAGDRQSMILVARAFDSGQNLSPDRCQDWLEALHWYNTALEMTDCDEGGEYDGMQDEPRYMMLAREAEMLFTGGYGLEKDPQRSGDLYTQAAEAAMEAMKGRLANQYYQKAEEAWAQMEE

| inhibition [1] [%] | inhibition [2] [%] | inhibition [3] [%] | inhibition [4] [%] | inhibition [5] [%] | inhibition [6] [%] | inhibition [7] [%] | inhibition [8] [%] | SMILES |
| --- | --- | --- | --- | --- | --- | --- | --- | --- |
| < 35 | < 35 | < 35 | < 35 | < 35 | < 35 | < 35 | < 35 | CCC[C@@H](NC(=O)c1ccc2nc(N[C@H]3CC[C@H](O)CC3)c3nccn3c2c1)c1ccccc1 |
| < 35 | < 35 | < 35 | < 35 | 90.4 | < 35 | < 35 | < 35 | NC(=O)c1ccc2nc(N[C@H]3CC[C@H](O)CC3)c3nccn3c2c1 |
| < 35 | < 35 | < 35 | < 35 | < 35 | < 35 | < 35 | < 35 | O=C(NC1(c2ccccc2)CC1)c1ccc2nc(N[C@H]3CC[C@H](O)CC3)c3nccn3c2c1 |
| < 35 | < 35 | 86.6 | < 35 | 91.3 | < 35 | < 35 | < 35 | O=C(O)c1ccc2nc(N[C@H]3CC[C@H](O)CC3)c3nccn3c2c1 |
| < 35 | < 35 | < 35 | < 35 | 59.1 | < 35 | < 35 | < 35 | O=C(NC1(c2ccccc2)CCC1)c1ccc2nc(N[C@H]3CC[C@H](O)CC3)c3nccn3c2c1 |
| < 35 | < 35 | < 35 | < 35 | < 35 | < 35 | < 35 | < 35 | C[C@H](NC(=O)c1ccc2nc(N[C@H]3CC[C@H](O)CC3)c3nccn3c2c1)c1ccccc1 |
| < 35 | < 35 | < 35 | < 35 | < 35 | < 35 | < 35 | < 35 | O=C(NC1(c2ccc(F)cc2)CC1)c1ccc2nc(N[C@H]3CC[C@H](O)CC3)c3nccn3c2c1 |
| < 35 | < 35 | < 35 | < 35 | < 35 | < 35 | < 35 | < 35 | CC[C@@H](NC(=O)c1ccc2nc(N[C@H]3CC[C@H](O)CC3)c3nccn3c2c1)c1ccccc1 |
| < 35 | < 35 | < 35 | < 35 | < 35 | < 35 | < 35 | < 35 | CC(C)(NC(=O)c1ccc2nc(N[C@H]3CC[C@H](O)CC3)c3nccn3c2c1)c1ccccc1 |
| < 35 | < 35 | < 35 | < 35 | 56.2 | < 35 | < 35 | < 35 | C[C@@H](NC(=O)c1ccc2nc(N[C@H]3CC[C@H](O)CC3)c3nccn3c2c1)c1ccccc1 |
| < 35 | < 35 | < 35 | < 35 | 46.6 | < 35 | < 35 | < 35 | O=C(N[C@H](CO)c1ccccc1)c1ccc2nc(N[C@H]3CC[C@H](O)CC3)c3nccn3c2c1 |
| < 35 | < 35 | < 35 | < 35 | < 35 | < 35 | < 35 | < 35 | O=C(NC1(Cc2ccc(F)cc2)CC1)c1ccc2nc(N[C@H]3CC[C@H](O)CC3)c3nccn3c2c1 |

Source: ChEMBL document CHEMBL2417377, “Hit-to-lead optimization and kinase selectivity of imidazo[1,2-a]quinoxalin-4-amine derived JNK1 inhibitors” (Bioorg Med Chem Lett, 2013)
